Source: US20250099420A1, “SMALL MOLECULE MODULATORS OF GPR139 COMPLEX” (University of Florida Research Foundation, Incorporated, priority 2022, published 2025)
pEC50: −log10 of the molar value. Like-named read-outs stand apart in the source and are kept apart here.

Columns and labels:
parental HEK cells = experiment: HEK parental Agonist Counterscreen Assay (non-transfected cells); assay type: cell-based; conditions: for Averaged Max % Response (±St. Dev.): activity relative to known control
Description: The high control for the agonist counterscreen was Forskolin not acetylcholine.

GPR139 = target: T1, GPR139 (Homo sapiens, UniProt Q6DWJ6); experiment: GPR139 Agonist titration / agonist counterscreen assay (calcium detection, HEK-GPR139 cells); assay type: cell-based; parameters: expressed in transfected cells; host or cells: HEK Aequorin cells, Maxcyte transient transfection; conditions: GPR139 Agonist Activity; for Averaged Max % Response (±St. Dev.): activity relative to known control; for pEC50: read-out: EC50
T1 sequence (Q6DWJ6 1-353): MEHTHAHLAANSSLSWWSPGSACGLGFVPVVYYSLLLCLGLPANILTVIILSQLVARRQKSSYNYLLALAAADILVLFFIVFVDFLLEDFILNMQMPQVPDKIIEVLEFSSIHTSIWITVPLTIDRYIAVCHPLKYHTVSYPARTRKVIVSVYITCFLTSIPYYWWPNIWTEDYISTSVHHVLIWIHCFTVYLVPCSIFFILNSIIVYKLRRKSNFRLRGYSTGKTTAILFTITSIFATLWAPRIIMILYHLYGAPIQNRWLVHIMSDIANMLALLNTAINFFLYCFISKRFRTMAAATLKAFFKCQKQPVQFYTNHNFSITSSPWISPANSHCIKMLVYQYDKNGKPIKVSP
Protocol: GPR activity was assessed using a calcium detection assay. […] Negative control samples were treated with DMSO. […] Intracellular calcium was measured using Calcium 5.

[1] = HEK Agonist Activity section of Table 4 (parental HEK counterscreen)
[2] = values printed in E-notation without unit
[3] = Homo sapiens, HEK293, HEK Agonist Activity section of Table 4 (parental HEK counterscreen)
[4] = Homo sapiens, HEK293, HEK Agonist Activity, parental non-transfected HEK cells

Row | Structure (SMILES) | Lipophilic Efficiency (logD) (parental HEK cells; HEK Agonist Activity section) | Lipophilic Efficiency (logP) (parental HEK cells; HEK Agonist Activity section) | pEC50 (parental HEK cells; [1]) | Averaged Max % Response (±St. Dev.) (parental HEK cells; HEK Agonist Activity section) | Averaged Max % Response (±St. Dev.) (GPR139) | Lipophilic Efficiency (logD) (GPR139; based on logD) | Lipophilic Efficiency (logP) (GPR139; based on logP) | Hill Slope (GPR139; fitted dose-response curve) | Efficiency Ligand (GPR139; ligand efficiency) | pEC50 (GPR139; [2]) | Lipophilic Efficiency (logD) (parental HEK cells; HEK Agonist Activity) | Lipophilic Efficiency (logP) (parental HEK cells; HEK Agonist Activity) | Averaged Max % Response (±St. Dev.) (parental HEK cells; HEK Agonist Activity) | other results
1 | CC1=NNC(=O)C1CC(=O)N/N=C/c1cccc2ccccc12 (centres unmarked) [SR-01000080433] | 3.22 | 3.22 | < 4.85 | 29.03 ± 7.47% | 107.91 ± 12.91% | 4.98 | 4.98 | 0.75 | 0.40 | 6.62 | – | – | – | –
2 | CC(C)Cn1c2c(c(=O)[nH]c1=O)C(NC(=O)CCC1CCCCC1)(C(F)(F)F)C(=O)N2 (centres unmarked) [SR-01000086488] | 2.44 | 2.40 | – | 1.08 ± 3.12% | 78.41 ± 20.14% | – | – | – | – | – | – | – | – | pEC50 (parental HEK cells; [3]): < 4.85; Efficiency Ligand (GPR139): 0.29; Hill Slope (GPR139): 1.22; Lipophilic Efficiency (logD) (GPR139): 3.95; Lipophilic Efficiency (logP) (GPR139): 3.92; pEC50 (GPR139; HEK-GPR139 cells): 6.37
3 | O=C(Cn1cc2c(n1)CCCCC2)NCCCc1ccccc1 [SR-01000088420] | 1.33 | 1.33 | < 4.85 | 12.56 ± 5.54% | 100.76 ± 18.47% | 3.28 | 3.28 | 1.29 | 0.41 | 6.81 | – | – | – | –
4 | Cc1ccc(CCNC(=O)Cn2cc3c(n2)CCCCC3)cc1 [SR-01000088477] | – | – | – | – | 120.85 ± 28.06% | 4.18 | 4.18 | 0.72 | 0.47 | – | 1.26 | 1.26 | −0.30 ± 8.57% | pEC50 (parental HEK cells; [4]): < 4.85
5 | O=C1N2CN(Cc3ccccc3)CN3C(=O)N4CN(Cc5ccccc5)CN1C4C23 (centres unmarked) [SR-01000090996] | 2.07 | 2.07 | – | −5.40 ± 6.26% | 117.44 ± 4.30% | 4.52 | 4.52 | 1.21 | 0.34 | 7.31 | – | – | – | pEC50 (parental HEK cells; [3]): < 4.85
6 | CC(C)(C)n1c2c(c(=O)[nH]c1=O)C(NC(=O)CCC1CCCCC1)(C(F)(F)F)C(=O)N2 (centres unmarked) [SR-01000091502] | 2.63 | 2.59 | < 4.85 | −12.00 ± 4.68% | 88.58 ± 8.42% | 4.63 | 4.59 | 0.85 | 0.31 | 6.85 | – | – | – | –
7 | Cc1ccccc1CN1CCN(CC(=O)NCCc2ccc(Cl)cc2)C1=O [SR-01000093460] | – | – | – | – | 112.00 ± 16.24% | 6.04 | 6.04 | – | 0.47 | – | 1.85 | 1.85 | 109.44 ± 22.66% | Hill Slope (parental HEK cells; HEK Agonist Activity): 15.09; pEC50 (parental HEK cells; HEK Agonist Activity, parental non-transfected HEK cells): 4.96
8 | C=C(CCc1cccc(CC)c1)C(C)C1CCC(Cc2ccccc2C)C1=C (centres unmarked) [SR-01000095280] | – | – | – | – | 122.65 ± 11.25% | 6.68 | 6.68 | – | 0.41 | – | 2.38 | 2.38 | 25.01 ± 8.12% | pEC50 (parental HEK cells; [4]): < 4.85
9 | Cc1cc(NC(=O)Cn2ncc3c2-c2ccccc2OC3)no1 [SR-01000098884] | 3.22 | 3.22 | < 4.85 | 0.57 ± 13.32% | 75.62 ± 16.43% | – | – | – | – | – | – | – | – | Efficiency Ligand (GPR139): 0.35; Hill Slope (GPR139): 0.72; Lipophilic Efficiency (logD) (GPR139): 4.12; Lipophilic Efficiency (logP) (GPR139): 4.12; pEC50 (GPR139; HEK-GPR139 cells): 5.74
